The target in the assay is 5-HT2A (Homo sapiens (Human), UniProt P28223). The assay can be described thus: Radioligand binding assay, [^3H]5-HT competition, 5-HT2A.
[1] abbreviates: [^3H]5-HT radioligand, membranes of HEK293 cells expressing recombinant 5-HT2A, Ki from IC50 by Cheng-Prusoff, read-out: 5-HT2A serotonin binding Ki value.

Where two headings read alike, the source gives them in different places.

The results in this text go back to US20250270172A1, “Pyrimidine Derivatives As Modulators of the 5-HT2A Serotonin Receptor Useful For The Treatment of Disorders Related Thereto” (Arena Pharmaceuticals, Inc., priority 2020, published 2025).

Chain of 5-HT2A (P28223 whole entry): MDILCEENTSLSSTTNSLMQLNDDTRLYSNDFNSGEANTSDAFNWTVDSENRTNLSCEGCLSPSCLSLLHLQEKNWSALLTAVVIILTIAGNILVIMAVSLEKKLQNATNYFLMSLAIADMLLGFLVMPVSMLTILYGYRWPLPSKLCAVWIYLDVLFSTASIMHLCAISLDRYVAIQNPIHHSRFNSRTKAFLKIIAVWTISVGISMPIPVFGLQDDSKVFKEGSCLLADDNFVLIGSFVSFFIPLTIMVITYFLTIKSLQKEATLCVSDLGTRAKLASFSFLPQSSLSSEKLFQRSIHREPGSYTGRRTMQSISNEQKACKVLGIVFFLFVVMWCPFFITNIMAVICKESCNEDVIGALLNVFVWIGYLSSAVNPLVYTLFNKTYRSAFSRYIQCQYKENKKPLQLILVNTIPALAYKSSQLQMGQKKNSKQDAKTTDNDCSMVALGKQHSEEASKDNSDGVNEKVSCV

For the compound `Cc1ncnc(C)c1-c1cc(NC(=O)c2ccn(C)c2)ccc1OCCN1CCCC1` [Compound 201, N-(3-(4,6-dimethylpyrimidin-5-yl)-4-(2-(pyrrolidin-1-yl)ethoxy)phenyl)-1-methyl-1H-pyrrole-3-carboxamide], the Ki under setting [1] was 0.0334 µM.

Regarding `Cc1ncnc(C)c1-c1cc(NC(=O)c2ccn(C)n2)ccc1OCCN1CCCC1` [Compound 203, N-(3-(4,6-dimethylpyrimidin-5-yl)-4-(2-(pyrrolidin-1-yl)ethoxy)phenyl)-1-methyl-1H-pyrazole-3-carboxamide], under setting [1], the Ki amounted to 0.783 µM.

Consider `Cc1cc(C(=O)Nc2ccc(OCCN3CCCC3)c(-c3c(C)ncnc3C)c2)co1` [Compound 204, N-(3-(4,6-dimethylpyrimidin-5-yl)-4-(2-(pyrrolidin-1-yl)ethoxy)phenyl)-5-methylfuran-3-carboxamide], for which, under setting [1], the Ki came to 0.0132 µM.

With `CCc1cc(C(=O)Nc2ccc(OCCN3CCCC3)c(-c3c(C)ncnc3C)c2)[nH]n1` [Compound 205, N-(3-(4,6-dimethylpyrimidin-5-yl)-4-(2-(pyrrolidin-1-yl)ethoxy)phenyl)-3-ethyl-1H-pyrazole-5-carboxamide], the Ki under setting [1] came out at 0.0104 µM.

Consider `Cc1ncnc(C)c1-c1cc(NC(=O)c2cc(C(C)C)n[nH]2)ccc1OCCN1CCCC1` [Compound 206, N-(3-(4,6-dimethylpyrimidin-5-yl)-4-(2-(pyrrolidin-1-yl)ethoxy)phenyl)-3-isopropyl-1H-pyrazole-5-carboxamide], for which, under setting [1], the Ki turned out to be 0.00651 µM.

As for `Cc1ncnc(C)c1-c1cc(NC(=O)c2cncc(F)c2)ccc1OCCN1CCCC1` [Compound 207, N-(3-(4,6-dimethylpyrimidin-5-yl)-4-(2-(pyrrolidin-1-yl)ethoxy)phenyl)-5-fluoronicotinamide], the Ki under setting [1] worked out at 0.0442 µM.

Regarding `COc1cncc(C(=O)Nc2ccc(OCCN3CCCC3)c(-c3c(C)ncnc3C)c2)c1` [Compound 208, N-(3-(4,6-dimethylpyrimidin-5-yl)-4-(2-(pyrrolidin-1-yl)ethoxy)phenyl)-5-methoxynicotinamide], the Ki under setting [1] is 0.0225 µM.

Take `Cc1ncnc(C)c1-c1cc(NC(=O)c2ccc(F)cn2)ccc1OCCN1CCCC1` [Compound 210, N-(3-(4,6-dimethylpyrimidin-5-yl)-4-(2-(pyrrolidin-1-yl)ethoxy)phenyl)-5-fluoropicolinamide]: the Ki under setting [1] was 0.134 µM.

As to `Cc1ncnc(C)c1-c1cc(NC(=O)[C@@H]2C[C@H]2F)ccc1OCCN1CCCC1` [Compound 211, (1S,2R)—N-(3-(4,6-dimethylpyrimidin-5-yl)-4-(2-(pyrrolidin-1-yl)ethoxy)phenyl)-2-fluorocyclopropane-1-carboxamide], the Ki under setting [1] came out at 0.00208 µM.

Take `Cc1ncnc(C)c1-c1cc(NC(=O)[C@H]2C[C@H]2F)ccc1OCCN1CCCC1` [Compound 212, (1R,2R)—N-(3-(4,6-dimethylpyrimidin-5-yl)-4-(2-(pyrrolidin-1-yl)ethoxy)phenyl)-2-fluorocyclopropane-1-carboxamide]: under setting [1], the Ki is 0.00556 µM.

For `Cc1ncnc(C)c1-c1cc(NC(=O)[C@@H]2C[C@@H]2F)ccc1OCCN1CCCC1` [Compound 213, (1S,2S)—N-(3-(4,6-dimethylpyrimidin-5-yl)-4-(2-(pyrrolidin-1-yl)ethoxy)phenyl)-2-fluorocyclopropane-1-carboxamide], the Ki under setting [1] is 0.0046 µM.

As for `Cc1nc(C)c(C(=O)Nc2ccc(OCCN3CCCC3)c(-c3c(C)ncnc3C)c2)s1` [Compound 215, N-(3-(4,6-dimethylpyrimidin-5-yl)-4-(2-(pyrrolidin-1-yl)ethoxy)phenyl)-2,4-dimethylthiazole-5-carboxamide], under setting [1], the inhibition constant (Ki) is 0.0157 µM.

For `Cc1cnoc1C(=O)Nc1ccc(OCCN2CCCC2)c(-c2c(C)ncnc2C)c1` [Compound 216, N-(3-(4,6-dimethylpyrimidin-5-yl)-4-(2-(pyrrolidin-1-yl)ethoxy)phenyl)-4-methylisoxazole-5-carboxamide], the Ki under setting [1] worked out at 0.0166 µM.

Turning to `Cc1ncnc(C)c1-c1cc(NC(=O)c2cnoc2)ccc1OCCN1CCCC1` [Compound 218, N-(3-(4,6-dimethylpyrimidin-5-yl)-4-(2-(pyrrolidin-1-yl)ethoxy)phenyl)isoxazole-4-carboxamide], under setting [1], the Ki is 1.51 µM.

Take `Cc1nocc1C(=O)Nc1ccc(OCCN2CCCC2)c(-c2c(C)ncnc2C)c1` [Compound 219]: under setting [1], the Ki was 0.00651 µM.

As to `Cc1ncnc(C)c1-c1cc(NC(=O)c2cnoc2C)ccc1OCCN1CCCC1` [Compound 220, N-(3-(4,6-dimethylpyrimidin-5-yl)-4-(2-(pyrrolidin-1-yl)ethoxy)phenyl)-5-methylisoxazole-4-carboxamide], under setting [1], the Ki was determined as 0.022 µM.

On to `Cc1ncnc(C)c1-c1cc(NC(=O)c2ncoc2C)ccc1OCCN1CCCC1` [Compound 221, N-(3-(4,6-dimethylpyrimidin-5-yl)-4-(2-(pyrrolidin-1-yl)ethoxy)phenyl)-5-methyloxazole-4-carboxamide], for which the Ki under setting [1] came to 0.0114 µM.

For `Cc1nscc1C(=O)Nc1ccc(OCCN2CCCC2)c(-c2c(C)ncnc2C)c1` [Compound 223, N-(3-(4,6-dimethylpyrimidin-5-yl)-4-(2-(pyrrolidin-1-yl)ethoxy)phenyl)-3-methylisothiazole-4-carboxamide], the Ki (read-out: 5-HT2A serotonin binding Ki value) was 0.0105 µM.

`Cc1ncnc(C)c1-c1cc(NC(=O)Cc2ncsc2C)ccc1OCCN1CCCC1` [Compound 225, N-(3-(4,6-dimethylpyrimidin-5-yl)-4-(2-(pyrrolidin-1-yl)ethoxy)phenyl)-2-(5-methylthiazol-4-yl)acetamide]: under setting [1], the Ki came to 0.712 µM.

In the case of `Cc1ncoc1CC(=O)Nc1ccc(OCCN2CCCC2)c(-c2c(C)ncnc2C)c1` [Compound 226, N-(3-(4,6-dimethylpyrimidin-5-yl)-4-(2-(pyrrolidin-1-yl)ethoxy)phenyl)-2-(4-methyloxazol-5-yl)acetamide], the Ki under setting [1] worked out at 0.714 µM.

Take `Cc1ncnc(C)c1-c1cc(NC(=O)Cc2ccnn2C)ccc1OCCN1CCCC1` [Compound 227, N-(3-(4,6-dimethylpyrimidin-5-yl)-4-(2-(pyrrolidin-1-yl)ethoxy)phenyl)-2-(1-methyl-1H-pyrazol-5-yl)acetamide]: the Ki under setting [1] was determined as 0.0831 µM.

With `Cc1ncnc(C)c1-c1cc(NC(=O)CC2CCOC2)ccc1OCCN1CCCC1` (centres unmarked) [Compound 228, N-(3-(4,6-dimethylpyrimidin-5-yl)-4-(2-(pyrrolidin-1-yl)ethoxy)phenyl)-2-(tetrahydrofuran-3-yl)acetamide], under setting [1], the Ki was 0.013 µM.

For `Cc1ncnc(C)c1-c1cc(NC(=O)CC2CCCO2)ccc1OCCN1CCCC1` (centres unmarked) [Compound 229, N-(3-(4,6-dimethylpyrimidin-5-yl)-4-(2-(pyrrolidin-1-yl)ethoxy)phenyl)-2-(tetrahydrofuran-2-yl)acetamide], the Ki under setting [1] came to 0.113 µM.

For `Cc1ncnc(C)c1-c1cc(NC(=O)C2CCCO2)ccc1OCCN1CCCC1` (centres unmarked) [Compound 230, N-(3-(4,6-dimethylpyrimidin-5-yl)-4-(2-(pyrrolidin-1-yl)ethoxy)phenyl)tetrahydrofuran-2-carboxamide], the Ki under setting [1] turned out to be 0.252 µM.

With `Cc1ncnc(C)c1-c1cc(NC(=O)C2CCOC2)ccc1OCCN1CCCC1` (centres unmarked) [Compound 231, N-(3-(4,6-dimethylpyrimidin-5-yl)-4-(2-(pyrrolidin-1-yl)ethoxy)phenyl)tetrahydrofuran-3-carboxamide], the Ki under setting [1] is 0.0457 µM.

Turning to `CCOCC(=O)Nc1ccc(OCCN2CCCC2)c(-c2c(C)ncnc2C)c1` [Compound 234, N-(3-(4,6-dimethylpyrimidin-5-yl)-4-(2-(pyrrolidin-1-yl)ethoxy)phenyl)-2-ethoxyacetamide], under setting [1], the Ki was determined as 0.121 µM.

In turn, `COCCC(=O)Nc1ccc(OCCN2CCCC2)c(-c2c(C)ncnc2C)c1` [Compound 235, N-(3-(4,6-dimethylpyrimidin-5-yl)-4-(2-(pyrrolidin-1-yl)ethoxy)phenyl)-3-methoxypropanamide] gave a Ki of 0.211 µM.

Regarding `Cc1ncnc(C)c1-c1cc(NC(=O)Cn2cccn2)ccc1OCCN1CCCC1` [Compound 236, N-(3-(4,6-dimethylpyrimidin-5-yl)-4-(2-(pyrrolidin-1-yl)ethoxy)phenyl)-2-(1H-pyrazol-1-yl)acetamide], the Ki under setting [1] was determined as 0.0214 µM.

As to `Cc1ncnc(C)c1-c1cc(NC(=O)CN2CCn3cccc3C2)ccc1OCCN1CCCC1` [Compound 237, 2-(3,4-dihydro-1H-pyrrolo[1,2-a]pyrazin-2-yl)-N-[3-(4,6-dimethylpyrimidin-5-yl)-4-(2-pyrrolidin-1-ylethoxy)phenyl]acetamide], the Ki under setting [1] was determined as 0.0127 µM.

On to `Cc1ncnc(C)c1-c1cc(NC(=O)CN2CCn3nccc3C2)ccc1OCCN1CCCC1` [Compound 239, 2-(6,7-dihydropyrazolo[1,5-a]pyrazin-5 (4H)-yl)-N-(3-(4,6-dimethylpyrimidin-5-yl)-4-(2-(pyrrolidin-1-yl)ethoxy)phenyl)acetamide], for which the Ki under setting [1] turned out to be 0.0923 µM.

In the case of `Cc1ncnc(C)c1-c1cc(NC(=O)CN2CCn3cnnc3C2)ccc1OCCN1CCCC1` [Compound 240, 2-(5,6-dihydro-[1,2,4]triazolo[4,3-a]pyrazin-7 (8H)-yl)-N-(3-(4,6-dimethylpyrimidin-5-yl)-4-(2-(pyrrolidin-1-yl)ethoxy)phenyl)acetamide], the Ki under setting [1] was 60.9 µM.

On to `Cc1ncnc(C)c1-c1cc(NC(=O)COC2CC2)ccc1OCCN1CCCC1` [Compound 241, 2-(cyclopropoxy)-N-[3-(4,6-dimethylpyrimidin-5-yl)-4-(2-pyrrolidin-1-ylethoxy)phenyl]acetamide], for which the Ki under setting [1] turned out to be 0.0278 µM.

With `Cc1ncnc(C)c1-c1cc(NC(=O)COC2CCC2)ccc1OCCN1CCCC1` [Compound 242, 2-cyclobutoxy-N-(3-(4,6-dimethylpyrimidin-5-yl)-4-(2-(pyrrolidin-1-yl)ethoxy)phenyl)acetamide], the Ki under setting [1] is 0.0376 µM.

Turning to `Cc1ncnc(C)c1-c1cc(NC(=O)[C@@]23COC[C@@H]2C3)ccc1OCCN1CCCC1` [Compound 246, (1R,5R)—N-[3-(4,6-dimethylpyrimidin-5-yl)-4-(2-pyrrolidin-1-ylethoxy)phenyl]-3-oxabicyclo[3.1.0]hexane-1-carboxamide], the Ki under setting [1] was found to be 0.0163 µM.

As for `Cc1ncnc(C)c1-c1cc(NC(=O)CCc2ccc(F)cc2)ccc1OCCN1CCCC1` [Compound 248, N-[3-(4,6-dimethylpyrimidin-5-yl)-4-(2-pyrrolidin-1-ylethoxy)phenyl]-3-(4-fluorophenyl)propanamide], the Ki under setting [1] is 0.000845 µM.

A word on the Ki: it is the dissociation constant of the complex between target and ligand, obtained from inhibition or displacement.
